Patent publication US20220313626A1, “SMALL MOLECULE INHIBITORS FOR TREATING CANCER IN A SUBJECT HAVING TUMORS WITH HIGH INTERSTITIAL PRESSURE” (GUANGZHOU MAXINOVEL PHARMACEUTICALS CO., LTD., priority 2019, published 2022)

Tested on: MC-38-hPD-L1 tumor cells
Test: Anti-tumor efficacy in MC-38-hPD-L1 models
Assay type: in vivo
Settings: for TGI / Tumor Volume: MC-38-hPD-L1, C57BL/6-hPD-1 mice, BID, 19 days
Description: Materials required for the experiment: Antibody: PD-L1 antibody Durvalumab, Product specifications: 120 mg/2.4 mL(50 mg/mL), Lot No.: 041E17C, Manufacture: AstraZeneca, purchased from Hongkong Mingchuang Medical Limited, storage at 2-8° C. Experimental animal: 120 C57BL/6-hPD-1 mice, female, 6˜8 weeks old, 18˜21 g, purchased from Jiangsu Gem Pharmatech Co. Ltd. Formulation material: castor oil (Cremophor RH40), CAS No.: 61788-85-0, Lot No.: 29761847G0, purchased from Shanghai Xietai Chemical Co. Ltd.; β-cyclodextrin (SBE-β-CD), CAS No.: 128446-35-5, Lot No.: R1804474, purchased from Shanghai Shaoyuan Chemical Co. Ltd.; DMEM culture medium, CAS No.: 11995-065, Lot No.: 2025378, purchased from Gibco Co. Ltd.; PBS, Art. No.: SH30256.01, Lot No.: AB10141338, purchased from HyClone Co. Ltd.; Fetal bovine serum: CAS No.: 10099-141, Lot No.: 1966174C, purchased from Gibco Co. Ltd.; hygromycinB: CAS No.: 10687010, Lot No.: HY069-L12 purchased from Invitrogen.
Cell culture: The MC-38 tumor cells (NCI) were maintained in vitro as a monolayer culture in DMEM medium supplemented with 10% heat inactivated fetal bovine serum, 100 μg/mL hygromycinB at 37° C. in an atmosphere of 5% CO2 in air. The tumor cells were routinely subcultured three times weekly by trypsin-EDTA treatment. The cells growing to a confluency around 70%-80% were harvested and counted for tumor inoculation.
Tumor cell inoculation and group administration: The 100 uL cell suspension containing 1×10^6 MC-38-hPD-L1 tumor cells (cells suspended in base DMEM medium) was inoculated into right dorsal subcutaneous area in mice. 6 days after inoculation, 60 tumor-bearing mice with transplanted tumors ranging from 31.49 mm^3 to 110.26 mm^3 were selected, stratified randomization was used to group and start the administration on the day of grouping.
Preparation of test substances: Preparation of formulation: 800 mL of sterile water was added into the volumetric flask with magnetic stirring to have a vortex. 100 g of castor oil (Cremophor RH40) was added with a spoon slowly into the vortex and the solution was kept stirring. 200 g of β-cyclodextrin (SBE-β-CD) was added while the solution was kept stirring until the solution was clear, and the total volume was set to 1000 mL, which contained 10% (w/v) Cremophor RH40+20% (w/v) an aqueous solution of SBE-β-CD.
Preparation of Compound Suspension: 150.92 mg compound was weighed and 12.5 mL 10% (w/v) Cremophor RH40+20% (w/v) SBE-β-CD aqueous solution were added. The suspension solution with a concentration of 12.0 mg/mL was obtained by vortex for 2 minutes and ultrasound for 30 minutes. 5.0 mL of the compound suspension solution with concentration of 12.0 mg/mL was pipetted and 5.0 mL aqueous formulation solution was added. The suspension solution with a concentration of 6.0 mg/mL was obtained by vortex for 1 minute and sonicated by ultrasound for 5 minutes. 2.0 mL of the compound suspension solution with concentration of 6.0 mg/mL was pipetted and […] was added. The suspension solution with a concentration of 3.0 mg/mL was obtained by vortex for 1 minute and sonicated by ultrasound for 5 minutes. Compound suspension solution was prepared once a day.
Preparation of hPD-L1 antibody: 0.12 mL PD-L1 antibody Durvalumab (50 mg/mL) original solution was pipetted and divided into […] in 5 mL sterile centrifugal tube, which were packed with each containing 6.0 mg. They were stored in refrigerator at 4° C. Before administration, a raw solution containing 0.12 mL and 50 mg/mL was taken, and 2.88 mL 0.9% sodium chloride solution was added to make the solution thoroughly mixed. 3 mL Duvalumab solution with the concentration 2 mg/mL was obtained.
Procedure: The mice in the vehicle group were weighed and recorded in the electronic balance according to their numbers. […]

Which results are given for `Cc1c(/C=C/c2cc(CN[C@@](C)(CO)C(=O)O)ccc2C(F)(F)F)cccc1-c1ccccc1` [Compound]?
tolerability (adverse reactions) (C57BL/6-hPD-1 mice, PO, BID up to 120 mg/kg): well tolerated; TGI (30 mg/kg, PO): 24.95%; Tumor Volume (30 mg/kg, PO): 459.82 ± 58.24 mm^3; TGI (60 mg/kg, PO): 29.06%; Tumor Volume (60 mg/kg, PO): 439.04 ± 51.23 mm^3; TGI (120 mg/kg, PO): 51.21%; Tumor Volume (120 mg/kg, PO): 325.23 ± 38.59 mm^3; growth of subcutaneous MC-38-hPD-L1 tumors in mice (MC-38-hPD-L1 model, C57BL/6-hPD-1 mice): significantly inhibit the growth
